The target of one series is T1, tau protein (Homo sapiens, UniProt P10636).
T1 construct: fused on or other part: Split fluorescent-protein halves for BiFC are fused to tau; In the published tau-BiFC line these are Venus VN173 and VC155
The series is described as follows: Tau-BiFC cell model: inhibition of tau protein aggregation. Type of series: cell-based. To be noted: for remaining activity at 10 µM: 48 h, compound 10 μM, BiFC fluorescence, Forskolin-only group = 100% tau protein-aggregated state, read-out: Response (% @10 μM); for IC50: Tau BiFC in cells, with Forskolin 30 μM, 48 hours. The procedure: (§1) In order to select novel tau protein aggregation-inhibiting substances, tau-BiFC cell model, in which formation of tau oligomers in living cells is easily observed, was used. Tau-BiFC cells were aliquoted into a 384-well plate. On the next day, the cells were treated with each of the compounds prepared according to Examples 1 to 175 at concentrations of 1 μM, 3 μM, and 10 μM, together with Forskolin (at a treatment concentration of 30 μM), which is a compound inducing tau protein aggregation by activating tau […] PKA. After 48 hours, nuclei in the cells were stained using Hoechst (at a treatment concentration of 2 μg/mL), and BiFC fluorescence intensity was automatically measured using Operetta (PerkinElmer) to count stained nuclei in each well out of the entire well plate. The group treated only with Forskolin, which induces tau protein aggregation, was set to a reference point of a 100% tau protein-aggregated state, and the effects of the compounds were confirmed using the equation “BiFC fluorescence intensity due to compound synthesized according to embodiment of present invention/(fluorescence intensity of control group treated only with Forskolin inducing tau protein aggregation−fluorescence intensity of untreated control group)×100”. Furthermore, the degree of cytotoxicity induced by the newly synthesized compound was also measured based on the 100% cell viability of the group treated only with Forskolin as a reference, and the cytotoxicity value of each compound was calculated using the equation “(number of stained nuclei in group treated with compound/number of stained nuclei in group treated with Forskolin)×100”. Based on the treatment results, substances inhibiting intracellular tau protein aggregation were selected from a series of candidate groups showing a tau protein aggregation inhibition rate of 70% or more and cell viability of 100% at a compound treatment concentration of 10 μM or more.
(§2) In order to evaluate dose-dependent tau protein aggregation inhibition effects of the compounds selected according to Experimental Example 1 on tau protein aggregation, tau-BiFC cells were treated with the selected compounds at concentrations of 0.03 μM, […], 0.3 μM, 1 μM, 3 μM, 10 μM, and 30 μM, respectively, together with Forskolin (at a treatment concentration of 30 μM), which is a tau protein aggregation inducing substance. After 48 hours, tau protein aggregation reaction and degrees of cytotoxicity were analyzed by observing images of the cells. IC50 and toxicity of the compounds were analyzed by way of nonlinear regression analysis of prism software (Graph Pad).

The next series concerns Tau-BiFC cells. The series can be described thus: Cell viability (cytotoxicity) in tau-BiFC cells, count of stained nuclei. It counts as cell-based. To be noted: compound 10 μM; Forskolin-only group = 100% cell viability. As to the method:
as §1, §2

This note sets out measurements from patent US12649723B2, “Carbonohydrazonoyl dicyanide compounds comprising 2 or more aryl or heteroaryl connected via linker and use thereof” (KOREA INSTITUTE OF SCIENCE AND TECHNOLOGY, priority 2020, dated 2026).

T1 sequence (P10636 2-441 isoform P10636-8 limits assumed): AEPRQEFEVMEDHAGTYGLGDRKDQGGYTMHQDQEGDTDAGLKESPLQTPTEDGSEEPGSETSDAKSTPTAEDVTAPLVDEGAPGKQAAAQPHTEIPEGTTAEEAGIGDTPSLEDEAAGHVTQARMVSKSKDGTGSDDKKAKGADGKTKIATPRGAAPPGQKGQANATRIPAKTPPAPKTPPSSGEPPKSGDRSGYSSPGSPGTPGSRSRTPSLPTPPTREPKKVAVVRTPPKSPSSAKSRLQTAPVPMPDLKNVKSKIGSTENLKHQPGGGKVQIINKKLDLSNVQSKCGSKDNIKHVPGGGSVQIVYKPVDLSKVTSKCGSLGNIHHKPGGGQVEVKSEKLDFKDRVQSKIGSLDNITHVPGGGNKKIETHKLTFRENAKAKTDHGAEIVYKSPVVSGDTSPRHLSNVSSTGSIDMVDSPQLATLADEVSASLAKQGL

By IC50 is commonly meant the point on the concentration scale where inhibition reaches its midpoint. Low values mean greater potency, high ones weaker potency. In the case of `N#CC(C#N)=NNc1ccc(OCc2ccc(C(F)(F)F)cc2)cc1` [Compound 118, (4-(4-(trifluoromethyl)benzyloxy)phenyl)carbonohydrazonoyl dicyanide], at tau protein, the remaining activity at 10 µM came out at 25.7% and 5750 nM corresponded to half-maximal inhibition (IC50). For the same compound, in the series with Tau-BiFC cells, the “Cell viability (% @10 μM)” value came out at 82.6%.
Turning to `Cc1cc(C(=O)Nc2ccc(NN=C(C#N)C#N)cn2)ccc1F` [Compound 21, (6-(4-fluoro-3-methylbenzamido)pyridin-3-yl)carbonohydrazonoyl dicyanide], at tau protein, the remaining activity at 10 µM was 0% and the IC50 stood at 750 nM. Moreover, the “Cell viability (% @10 μM)” value with Tau-BiFC cells was 104.3%.
For the compound `N#CC(C#N)=NNc1ccc(OCc2ccccc2)nc1` [Compound 95, (6-(benzyloxy)pyridin-3-yl)carbonohydrazonoyl dicyanide], the remaining activity at 10 µM at tau protein worked out at 0%. Moreover, in the series on Tau-BiFC cells, the “Cell viability (% @10 μM)” value was 71.9%.
For the compound `N#CC(C#N)=NNc1ccc(Oc2ccccc2F)cc1` [Compound 93, (4-(2-fluorophenoxy)phenyl)carbonohydrazonoyl dicyanide], on tau protein, the remaining activity at 10 µM is 0% and the IC50 was determined as 1290 nM. The “Cell viability (% @10 μM)” value in the series on Tau-BiFC cells came out at 66.5%.
On to `Cc1cnc(C(=O)Nc2ccc(NN=C(C#N)C#N)nc2)cn1` [Compound 14, (5-(5-methylpyrazine-2-carboxamido)pyridin-2-yl)carbonohydrazonoyl dicyanide], for which the remaining activity at 10 µM at tau protein is 147%. Besides, the “Cell viability (% @10 μM)” value with Tau-BiFC cells was 102%.
Turning to `N#CC(C#N)=NNc1ccc(Oc2cccc(F)c2)cc1` [Compound 94, (4-(3-fluorophenoxy)phenyl)carbonohydrazonoyl dicyanide], at tau protein, the remaining activity at 10 µM was found to be 0% and the 50% inhibitory concentration (IC50) turned out to be 1280 nM. In the series on Tau-BiFC cells, the “Cell viability (% @10 μM)” value is listed as 33.6%.
Consider `N#CC(C#N)=NNc1ccc(NC(=O)c2ccon2)nc1` [Compound 115, (6-(isoxazole-3-carboxamido)pyridin-3-yl)carbonohydrazonoyl dicyanide], for which, on tau protein, the remaining activity at 10 µM worked out at 0% and inhibition was half-maximal at 600 nM (IC50). For the same compound, the “Cell viability (% @10 μM)” value with Tau-BiFC cells is 157.6%.
For the compound `N#CC(C#N)=NNc1ccc(C(=O)Nc2cncnc2)nc1` [Compound 42, (6-(pyrimidin-5-ylcarbamoyl)pyridin-3-yl)carbonohydrazonoyl dicyanide], the remaining activity at 10 µM at tau protein was found to be 0%. Further, the “Cell viability (% @10 μM)” value in the series on Tau-BiFC cells came out at 123.1%.
Regarding `N#CC(C#N)=NNc1ccc(OCc2nc3ccccc3o2)cc1` [Compound 128, (4-(benzo[d]oxazol-2-ylmethoxy)phenyl)carbonohydrazonoyl dicyanide], on tau protein, the remaining activity at 10 µM amounted to 0% and the IC50 is 300 nM. Moreover, in the series with Tau-BiFC cells, the “Cell viability (% @10 μM)” value is recorded as 108.5%.
For `COc1ccc(NS(=O)(=O)c2ccc(NN=C(C#N)C#N)cc2)cc1` [Compound 66, (4-(N-(4-methoxyphenyl)sulfamoyl)phenyl)carbonohydrazonoyl dicyanide], the remaining activity at 10 µM on tau protein was 61.2%. Further, the “Cell viability (% @10 μM)” value with Tau-BiFC cells stood at 123.9%.
With `CN(N=C(C#N)C#N)c1ccc(Oc2cccc(F)c2)nc1` [Compound 76, (6-(3-fluorophenoxy)pyridin-3-yl)(methyl)carbonohydrazonoyl dicyanide], the remaining activity at 10 µM at tau protein came out at 79.9%. The “Cell viability (% @10 μM)” value in the series on Tau-BiFC cells was 121.7%.
In the case of `N#CC(C#N)=NNc1ccc(OCc2ccccc2)cc1` [Compound 117, (4-(benzyloxy)phenyl)carbonohydrazonoyl Dicyanide], on tau protein, the remaining activity at 10 µM was 16.6% and inhibition was half-maximal at 1240 nM (IC50). Also, the “Cell viability (% @10 μM)” value in the series with Tau-BiFC cells came out at 126.0%.
Regarding `Cc1cc(NN=C(C#N)C#N)ccc1Oc1ccncc1` [Compound 79, (3-methyl-4-(pyridin-4-yloxy)phenyl)carbonohydrazonoyl dicyanide], the remaining activity at 10 µM on tau protein worked out at 65.9%. For the same compound, the “Cell viability (% @10 μM)” value in the series on Tau-BiFC cells amounted to 115.7%.
Turning to `COc1ccc(CCOc2ccc(NN=C(C#N)C#N)cc2)cc1` [Compound 120, (4-(4-methoxyphenethoxy)phenyl)carbonohydrazonoyl dicyanide], on tau protein, the remaining activity at 10 µM was determined as 0% and it took 1450 nM to reach half-maximal inhibition (IC50). The “Cell viability (% @10 μM)” value with Tau-BiFC cells came to 66.2%.
`N#CC(C#N)=NNc1ccc(C(=O)Nc2cccnc2)nc1` [Compound 40, (6-(pyridin-3-ylcarbamoyl)pyridin-3-yl)carbonohydrazonoyl dicyanide]: at tau protein, the remaining activity at 10 µM stood at 7.9%. Also, in the series with Tau-BiFC cells, the “Cell viability (% @10 μM)” value is reported as 130.7%.
Turning to `Cc1cncc(NC(=O)c2ccc(NN=C(C#N)C#N)cn2)n1` [Compound 41, (6-(6-methylpyrazin-2-ylcarbamoyl)pyridin-3-yl)carbonohydrazonoyl dicyanide], on tau protein, the remaining activity at 10 µM came to 0%. Besides, the “Cell viability (% @10 μM)” value in the series on Tau-BiFC cells came to 115.2%.
Take `CN(N=C(C#N)C#N)c1ccc(Oc2ccccc2)cn1` [Compound 75, methyl(5-phenoxypyridin-2-yl)carbonohydrazonoyl dicyanide]: the remaining activity at 10 µM on tau protein came to 102%. Also, the “Cell viability (% @10 μM)” value in the series with Tau-BiFC cells turned out to be 131.4%.
On to `N#CC(C#N)=NNc1ccc(Oc2ncccn2)cc1` [Compound 91, (4-(pyrimidin-2-yloxy)phenyl)carbonohydrazonoyl dicyanide], for which, on tau protein, the remaining activity at 10 µM amounted to 0% and inhibition was half-maximal at 3120 nM (IC50). In addition, the “Cell viability (% @10 μM)” value in the series on Tau-BiFC cells is 117%.
For the compound `Cc1ccc(COc2ccc(NN=C(C#N)C#N)cc2)cc1` [Compound 119, (4-(4-methylbenzyloxy)phenyl)carbonohydrazonoyl dicyanide], at tau protein, the remaining activity at 10 µM came to 38.9% and the midpoint of inhibition, the IC50, lay at 3550 nM. Besides, in the series with Tau-BiFC cells, the “Cell viability (% @10 μM)” value is 112.5%.
Take `Cc1cc(NN=C(C#N)C#N)ccc1Oc1cccnc1` [Compound 74, (3-methyl-4-(pyridin-3-yloxy)phenyl)carbonohydrazonoyl dicyanide]: at tau protein, the remaining activity at 10 µM is 0% and the IC50 turned out to be 440 nM. Also, the “Cell viability (% @10 μM)” value in the series with Tau-BiFC cells was found to be 92.7%.
Take `Cc1cnc(C(=O)Nc2ccc(NN=C(C#N)C#N)c(Cl)c2)cn1` [Compound 5, (2-chloro-4-(5-methylpyrazine-2-carboxamido)phenyl)carbonohydrazonoyl dicyanide]: the remaining activity at 10 µM at tau protein worked out at 14.5%. Moreover, the “Cell viability (% @10 μM)” value with Tau-BiFC cells was found to be 61.2%.
For `Cc1ccc(COc2ccc(NN=C(C#N)C#N)cc2C(F)(F)F)cc1` [Compound 132, (4-(4-methylbenzyloxy)-3-(trifluoromethyl)phenyl)carbonohydrazonoyl dicyanide], on tau protein, the remaining activity at 10 µM is 0%. The “Cell viability (% @10 μM)” value with Tau-BiFC cells was determined as 39.2%.
For `COc1ccc(S(=O)(=O)Nc2ccc(NN=C(C#N)C#N)cn2)cc1` [Compound 59, (6-(4-methoxyphenylsulfonamido)pyridin-3-yl)carbonohydrazonoyl dicyanide], on tau protein, the remaining activity at 10 µM was found to be 74.3%. In the series with Tau-BiFC cells, the “Cell viability (% @10 μM)” value was 128.2%.
Take `N#CC(C#N)=NNc1ccc(Oc2ccccc2)c(F)c1` [Compound 71, (3-fluoro-4-phenoxyphenyl)carbonohydrazonoyl dicyanide]: the remaining activity at 10 µM at tau protein stood at 0%. Moreover, the “Cell viability (% @10 μM)” value in the series with Tau-BiFC cells was determined as 46%.
In the case of `N#CC(C#N)=NNc1ccc(OCc2cccnn2)cc1` [Compound 127, (4-(pyridazin-3-ylmethoxy)phenyl)carbonohydrazonoyl dicyanide], on tau protein, the remaining activity at 10 µM was determined as 0% and the midpoint of inhibition, the IC50, lay at 1200 nM. Further, the “Cell viability (% @10 μM)” value with Tau-BiFC cells worked out at 134.9%.
As for `Cn1cc(S(=O)(=O)Nc2ccc(NN=C(C#N)C#N)cn2)cn1` [Compound 61, (6-(1-methyl-1H-pyrazole-4-sulfonamido)pyridin-3-yl)carbonohydrazonoyl dicyanide], the remaining activity at 10 µM at tau protein was 109%. The “Cell viability (% @10 μM)” value with Tau-BiFC cells is 112.7%.
For the compound `COc1cc(NN=C(C#N)C#N)ccc1C(=O)Nc1cncc(C)c1` [Compound 107, (3-methoxy-4-(5-methylpyridin-3-ylcarbamoyl)phenyl)carbonohydrazonoyl dicyanide], on tau protein, the remaining activity at 10 µM is 0% and the IC50 came to 600 nM. Besides, the “Cell viability (% @10 μM)” value in the series with Tau-BiFC cells is recorded as 137.9%.
For the compound `N#CC(C#N)=NNc1ccc(NC(=O)c2ccccc2F)nc1` [Compound 17, (6-(2-fluorobenzamido)pyridin-3-yl)carbonohydrazonoyl dicyanide], on tau protein, the remaining activity at 10 µM came out at 0% and the half-inhibitory concentration (IC50) came out at 310 nM. Besides, in the series with Tau-BiFC cells, the “Cell viability (% @10 μM)” value amounted to 102.7%.
